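In this assay, cells in 96-well plates receive the compound at five concentrations for 48 hours. Endpoints are linearly interpolated between the surrounding concentrations. GI50 = concentration required for 50% inhibition of growth.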 Active and inactive are the calls of the source. Cut-off read from the data, not from the text of the source: active = GI50 up to about 1.1 µM and inactive = higher.
Columns and labels:
Assay in all cases: DTP human tumour cell line panel, 48 h
IGROV-1 = test system: IGROV-1
NCI-H522 = test system: NCI-H522
RXF 393 = test system: RXF 393
RPMI-8226 = test system: RPMI-8226
M14 = test system: M14
SNB-75 = test system: SNB-75
MOLT-4 = test system: MOLT-4
HL-60 = test system: HL-60
A549 = test system: A549
K562 = test system: K562
UO-31 = test system: UO-31
SW-620 = test system: SW-620
SF-268 = test system: SF-268
KM12 = test system: KM12
SK-OV-3 = test system: SK-OV-3
M19-MEL = test system: M19-MEL
DMS-114 = test system: DMS-114
SK-MEL-5 = test system: SK-MEL-5
NCI-H23 = test system: NCI-H23
OVCAR-3 = test system: OVCAR-3
SF-539 = test system: SF-539
DMS-273 = test system: DMS-273
TK-10 = test system: TK-10
XF498 = test system: XF498
OVCAR-8 = test system: OVCAR-8
COLO 205 = test system: COLO 205
UACC-257 = test system: UACC-257
SNB-19 = test system: SNB-19
SK-MEL-28 = test system: SK-MEL-28
CAKI-1 = test system: CAKI-1
LOX IMVI = test system: LOX IMVI
CCRF-CEM = test system: CCRF-CEM
HT-29 = test system: HT-29
EKVX = test system: EKVX
HCT-15 = test system: HCT-15
NCI-H226 = test system: NCI-H226
SF-295 = test system: SF-295
UACC-62 = test system: UACC-62
SN12C = test system: SN12C
DLD-1 = test system: DLD-1
NCI-H460 = test system: NCI-H460
HOP-92 = test system: HOP-92
Malme-3M = test system: Malme-3M
OVCAR-5 = test system: OVCAR-5
ACHN = test system: ACHN
HOP-62 = test system: HOP-62
KM-20L2 = test system: KM-20L2
HCT-116 = test system: HCT-116
LXFL 529 = test system: LXFL 529
U-251 = test system: U-251
A498 = test system: A498
OVCAR-4 = test system: OVCAR-4
SR = test system: SR
HCC 2998 = test system: HCC 2998
SK-MEL-2 = test system: SK-MEL-2
786-0 = test system: 786-0

Measured: GI50

Nc1ccc([C@H]2C(=O)N[C@H]3CCC[C@H]32)cc1
> 100 µM: HCT-15
inactive: IGROV-1 > 100 µM | NCI-H522 > 100 µM | RXF 393 > 100 µM | RPMI-8226 > 100 µM | M14 > 100 µM | SNB-75 > 100 µM | MOLT-4 > 100 µM | HL-60 > 100 µM | A549 > 100 µM | K562 > 100 µM | UO-31 > 100 µM | SW-620 > 100 µM | SF-268 > 100 µM | KM12 > 100 µM | SK-OV-3 > 100 µM | M19-MEL > 100 µM | DMS-114 > 100 µM | SK-MEL-5 > 100 µM | NCI-H23 > 100 µM | OVCAR-3 > 100 µM | SF-539 > 100 µM | DMS-273 > 100 µM | TK-10 > 100 µM | XF498 > 100 µM | OVCAR-8 > 100 µM | COLO 205 > 100 µM | UACC-257 > 100 µM | SNB-19 > 100 µM | SK-MEL-28 > 100 µM | CAKI-1 > 100 µM | LOX IMVI > 100 µM | CCRF-CEM > 100 µM | HT-29 > 100 µM | EKVX > 100 µM | NCI-H226 > 100 µM | SF-295 > 100 µM | UACC-62 > 100 µM | SN12C > 100 µM

Cn1c(=O)c2nc(N3CCCCC3)cnc2n(C)c1=O
> 100 µM: HCT-15
inactive: IGROV-1 > 100 µM | NCI-H522 > 100 µM | DLD-1 > 100 µM | NCI-H460 > 100 µM | RPMI-8226 > 100 µM | HOP-92 > 100 µM | Malme-3M > 100 µM | M14 > 100 µM | OVCAR-5 > 100 µM | SNB-75 > 100 µM | MOLT-4 > 100 µM | HL-60 > 100 µM | A549 > 100 µM | ACHN > 100 µM | HOP-62 > 100 µM | K562 > 100 µM | KM-20L2 > 100 µM | UO-31 > 100 µM | SW-620 > 100 µM | SF-268 > 100 µM | KM12 > 100 µM | SK-OV-3 > 100 µM | M19-MEL > 100 µM | HCT-116 > 100 µM | SK-MEL-5 > 100 µM | NCI-H23 > 100 µM | OVCAR-3 > 100 µM | SF-539 > 100 µM | TK-10 > 100 µM | XF498 > 100 µM | OVCAR-8 > 100 µM | COLO 205 > 100 µM | UACC-257 > 100 µM | SNB-19 > 100 µM | SK-MEL-28 > 100 µM | LXFL 529 > 100 µM | CAKI-1 > 100 µM | U-251 > 100 µM | A498 > 100 µM | OVCAR-4 > 100 µM | CCRF-CEM > 100 µM | HT-29 > 100 µM | SR > 100 µM | HCC 2998 > 100 µM | EKVX > 100 µM | SF-295 > 100 µM | UACC-62 > 100 µM | SN12C > 100 µM

COc1ccc(CC(=O)NCCc2ccc(OC)c(OC)c2)cc1Br
inactive: IGROV-1 > 100 µM | NCI-H522 > 100 µM | DLD-1 > 100 µM | RXF 393 > 100 µM | NCI-H460 > 100 µM | HOP-92 > 100 µM | SK-MEL-2 > 100 µM | Malme-3M > 100 µM | OVCAR-5 57.1 µM | MOLT-4 > 100 µM | HL-60 > 100 µM | A549 > 100 µM | ACHN > 100 µM | HOP-62 > 100 µM | K562 > 100 µM | KM-20L2 > 100 µM | UO-31 > 100 µM | SW-620 > 100 µM | SF-268 > 100 µM | KM12 > 100 µM | SK-OV-3 > 100 µM | DMS-114 > 100 µM | 786-0 > 100 µM | NCI-H23 > 100 µM | SF-539 > 100 µM | DMS-273 > 100 µM | TK-10 > 100 µM | XF498 38.7 µM | OVCAR-8 > 100 µM | COLO 205 > 100 µM | UACC-257 > 100 µM | SNB-19 > 100 µM | SK-MEL-28 > 100 µM | LXFL 529 > 100 µM | CAKI-1 > 100 µM | LOX IMVI > 100 µM | U-251 > 100 µM | A498 > 100 µM | OVCAR-4 > 100 µM | CCRF-CEM > 100 µM | HT-29 > 100 µM | SR > 100 µM | HCC 2998 > 100 µM | EKVX > 100 µM | NCI-H226 41.5 µM | SF-295 > 100 µM | UACC-62 62.1 µM | SN12C > 100 µM
